Patent publication EP2002838A1, “Use of aryl and hetaryl amide derivatives as modulators of an EP2 receptor” (Bayer Schering Pharma AG, priority 2007, dated 2008)

How the values were obtained:
Kumulus-Eizell Komplexe = assay: Cumulus expansion test in vitro; type: cell-based, Mäuse; details: competition with PGE2
Description: In immaturen weiblichen Mäusen (Stamm : CD1 (ICR) von Charles River) wird in einem Alter von 14-18 Tagen die Follikulogenese durch eine einmalige Gabe (intraperitoneal) von 10 1.E. PMSG (Pregnant Mare Serum Gonadotropine; Sigma G-4877, Lot 68H0909) induziert. 47 - 50 Stunden nach der Injektion werden die Ovarien entnommen und die Kumulus-Eizell Komplexe entnommen. Der Kumulus Komplex ist in diesem Stadium noch nicht expandiert. Die Kumulus-Eizell Komplexe werden nun für 20 - 24 Stunden mit Prostaglandin E2 (PGE2) (0,3 µM), Vehikel Kontrolle (Ethanol) oder Testsubstanzen inkubiert. Medium: alpha- MEM Medium mit 0,1 mM IBMX, Pyruvate (0,23 mM) Glutamine (2 mM), Pen/Strep 100 IU/ml Pen. und 100 µg/ml Strep.) und HSA (8 mg/ml)). Danach wird die Kumulus Expansion durch die Einteilung in vier Stadien (nach Vanderhyden et al. Dev Biol. 1990 Aug;140(2):307-317) festgestellt. Tabelle 1: Beispiel für die biologische Wirksamkeit der erfindungsgemäßen Verbindungen (gemessen mittels cAMP Antagonismustest): […]

[1] = target: T1, EP2-Subtyp des humanen PGE2-Rezeptors (Homo sapiens, UniProt P43116); assay: cAMP antagonism test (cellular, HTRF cAMP detection, PGE2 stimulation); type: cell-based; details: cAMP Antagonismustest; in presence of agonist PGE2; read-out: Antagonismus [IC50
T1 construct: host or cells: cells in a culture plate
Description: Die Bindung von PGE2 an den EP2-Subtyp des humanen PGE2-Rezeptors induziert die Aktivierung membranständiger Adenylatzyklasen und führt zur Bildung von cAMP. In Gegenwart des Phosphodiesteraseinhibitors IBMX wird das durch diese Stimulation akkumulierte und mittels Zell-Lyse freigesetzte cAMP in einem kompetitiven Nachweisverfahren eingesetzt. In diesem Test konkurriert das cAMP im Lysat mit cAMP-XL665 um die Bindung eines Eu-Kryptat markierten Anti-cAMP Antikörpers. Dabei entsteht in Abwesenheit von zellulärem cAMP ein maximales Signal, welches auf der Kopplung dieses Antikörpers an das cAMP-XL665 Molekül beruht. Dadurch entsteht nach Anregung bei 337 nm ein auf FRET (fluorescence resonance energy transfer) basierendes, langanhaltendes Emissionssignal bei 665 nm (und bei […]). Beide Signale werden in einem geeigneten Messgerät zeitlich versetzt, d.h. nach Abklingen der Hintergrundsfluoreszenz gemessen. Jegliche Erhöhung des durch Prostglandin-E2-Gabe bedingten niedrigen FRET-Signals (gemessen als Well-Ratio-Veränderung = Emission665nm/Emission620nm * 10000) zeigt die Wirkung von Antagonisten.
Die in einer Testplatte und 30 % DMSO vorgelegten Substanzlösungen (0.75 µl) werden in 16 µl einer KRSB+IBMX-Stimulationslösung gelöst (1 X Krebs-Ringer Bicarbonate Buffer; Sigma-Aldrich # K-4002; inklusive 750 µM 3-Isobutyl-1-methylxanthine Sigma-Aldrich # I-7018), anschließend werden 15 µl davon in eine medienfreie Zellkulturplatte überführt, die kurz zuvor mit KRSB gewaschen worden war.
Nach einer 30-minütigen Vorinkubation bei Raumtemperatur (RT) werden 5 µl einer 4xPGE2 Lösung (11 nM) zugegeben und in Gegenwart des Agonisten für weitere 60 min bei RT inkubiert (Volumen: - 20 µl), bevor die Reaktion anschließend durch Zugabe von 5 µl Lysispuffer gestoppt und für weitere 20 min bei RT inkubiert wird (Volumen: - 25 µl). Das Zell-Lysat wird anschließend in eine Messplatte überführt und entsprechend den Herstellerangaben (cyclic AMP kit Cisbio International # 62AMPPEC) gemessen.

[2] = target: T1, EP2-Subtyp des humanen PGE2-Rezeptors; assay: cAMP agonism test (cellular, HTRF cAMP detection, without PGE2); type: cell-based

T1 sequence (P43116 whole entry): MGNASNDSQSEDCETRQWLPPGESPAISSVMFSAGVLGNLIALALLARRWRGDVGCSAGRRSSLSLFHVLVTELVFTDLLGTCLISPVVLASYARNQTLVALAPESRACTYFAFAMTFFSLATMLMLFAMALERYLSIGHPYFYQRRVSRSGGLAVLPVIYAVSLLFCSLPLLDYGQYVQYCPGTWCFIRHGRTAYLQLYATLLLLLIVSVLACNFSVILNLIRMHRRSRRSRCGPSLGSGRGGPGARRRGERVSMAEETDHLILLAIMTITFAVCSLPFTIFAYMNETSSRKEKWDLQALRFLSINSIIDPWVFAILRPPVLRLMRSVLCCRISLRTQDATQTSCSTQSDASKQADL

IC50 [1] [nM]	Compound	other results
–	CC(C)Oc1ccc2c(=O)c3cc(C(=O)O)ccc3oc2c1 [AH 6809, reference compound]	Unterdrückung der Kumulus Expansion (Kumulus-Eizell Komplexe; concentration 100 - 200 µM): ca. 30%
960	Cc1[nH]c2c(F)ccc(C)c2c1CCNC(=O)c1ccc(-n2cccc2)cc1 [Beispiel 13, N-[2-(7-Fluor-2,4-dimethyl-1H-indol-3-yl)-ethyl]-4-pyrrol-1-yl-benzamid]	–
1000	Cc1[nH]c2c(F)ccc(C)c2c1CCNC(=O)c1cccc(-c2cc[nH]n2)c1 [Beispiel 15, N-[2-(7-Fluor-2,4-dimethyl-1H-indol-3-yl)-ethyl]-3-(1 H-pyrazol-3-yl)-benzamid]	Inhibition im zellulären Agonismustest [2]: keine Inhibition
1900	Cc1[nH]c2c(F)ccc(C)c2c1CCNC(=O)c1cccc(-c2cccnc2)c1 [Beispiel 20, N-[2-(7-Fluor-2,4-dimethyl-1H-indol-3-yl)-ethyl]-3-pyridin-3-yl-benzamid]	–
–	Cc1[nH]c2c(F)ccc(C)c2c1CCNC(=O)c1ccc(-c2csnn2)cc1 [Beispiel 21, N-[2-(7-Fluor-2,4-dimethyl-1H-indol-3-yl)-ethyl]-4-[1,2,3]thiadiazol-4-yl-benzamid]	Unterdrückung der Kumulus Expansion (Kumulus-Eizell Komplexe; concentration 10µM): 50%
